Source: publication PMC11882969 (Nature Communications, 2025)
Values joined by “and” are separate entries in the source; they are usually repeats but may differ in a detail not shown here. Identical values can stand only once.

Molecular target: hCB1 (Homo sapiens, UniProt P21554)
Experiment: bioSensAll ebBRET signaling profiling, hCB1
Format: cell-based
Set-up: host or cells: HEK293SL cells, transient PEI transfection
Settings: for Gi1 hCB1 response: Gi1 biosensor; for Gi1 hCB1 / GoB hCB1: single replicate values, FigS6a
[1] = Log [Compound] (M) -13, individual replicate values

hCB1, sequence (P21554 whole entry): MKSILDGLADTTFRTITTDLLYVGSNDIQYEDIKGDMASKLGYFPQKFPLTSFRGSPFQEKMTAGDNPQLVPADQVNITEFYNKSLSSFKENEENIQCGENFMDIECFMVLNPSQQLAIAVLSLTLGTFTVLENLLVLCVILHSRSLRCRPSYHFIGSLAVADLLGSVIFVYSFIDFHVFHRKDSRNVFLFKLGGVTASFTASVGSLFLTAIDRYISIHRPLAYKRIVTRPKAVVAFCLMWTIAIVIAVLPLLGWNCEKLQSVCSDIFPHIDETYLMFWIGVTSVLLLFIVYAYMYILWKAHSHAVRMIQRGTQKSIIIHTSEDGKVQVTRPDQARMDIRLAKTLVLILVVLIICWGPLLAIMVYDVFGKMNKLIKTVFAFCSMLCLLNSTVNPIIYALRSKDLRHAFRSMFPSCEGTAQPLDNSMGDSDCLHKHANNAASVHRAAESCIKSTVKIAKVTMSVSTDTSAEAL

Cc1cc(C(=O)N2CC3(CCC3)[C@@H]2[C@H]2CCCO2)nn1-c1cccc(C(F)(F)F)c1 (single isomer, unassigned) [compound 430]
Gi1 hCB1 response (Log [Compound] (M) -4.22186): 4.286 | Gi1 hCB1 response (Log [Compound] (M) -4.63927): -17.6928 | Gi1 hCB1 response (Log [Compound] (M) -5.05788): -21.811 | Gi1 hCB1 response (Log [Compound] (M) -5.47381): -11.1127 | Gi1 hCB1 response (Log [Compound] (M) -5.89285): -12.5003 | Gi1 hCB1 response (Log [Compound] (M) -6.31878): -6.681 | Gi1 hCB1 response (Log [Compound] (M) -6.72585): 6.524 | Gi1 hCB1 response (Log [Compound] (M) -7.14267): -2.6525 | Gi1 hCB1 response (Log [Compound] (M) -7.55284): 0.7047 | Gi1 hCB1 response (Log [Compound] (M) -8): -4.174 | Gi1 hCB1 response (Log [Compound] (M) -8.22186): 0.4361 | Gi1 hCB1 response (Log [Compound] (M) -8.39794): -4.779 | Gi1 hCB1 response (Log [Compound] (M) -8.68787): 4.89 | Gi1 hCB1 response (Log [Compound] (M) -9.15521): -2.764 | Gi1 hCB1 response (Log [Compound] (M) -9.61989): -2.876 | Gi1 hCB1 response (Log [Compound] (M) -10.0969): -2.115 | Gi1 hCB1 response (Log [Compound] (M) -10.5529): 4.689 | Gi1 hCB1 response (Log [Compound] (M) -11.0177): -4.667 | Gi1 hCB1 response (Log [Compound] (M) -11.4949): -5.853 | Gi1 hCB1 response (Log [Compound] (M) -11.9208): -0.9963 | Gi1 hCB1 response (Log [Compound] (M) -12.3979): 1.4433 | Gi1 hCB1 response (Log [Compound] (M) -12.8861): -2.25 | Gi1 hCB1 response [1]: 4.375 and -8.248 | Gi1 hCB1 (Log [Compound] (M) -4.22186): 3.789 | GoB hCB1 (Log [Compound] (M) -4.22186): 6.14 | Gi1 hCB1 (Log [Compound] (M) -4.63927): -1.761 | GoB hCB1 (Log [Compound] (M) -4.63927): -3.176 | Gi1 hCB1 (Log [Compound] (M) -5.05788): -2.054 | GoB hCB1 (Log [Compound] (M) -5.05788): -0.4061 | Gi1 hCB1 (Log [Compound] (M) -5.47381): 0.08902 | GoB hCB1 (Log [Compound] (M) -5.47381): 1.896 | Gi1 hCB1 (Log [Compound] (M) -5.89285): 0.7519 | GoB hCB1 (Log [Compound] (M) -5.89285): 0.547 | Gi1 hCB1 (Log [Compound] (M) -6.31878): 0.1815 | GoB hCB1 (Log [Compound] (M) -6.31878): 1.86 | Gi1 hCB1 (Log [Compound] (M) -6.72585): 1.1836 | GoB hCB1 (Log [Compound] (M) -6.72585): 4.665 | Gi1 hCB1 (Log [Compound] (M) -7.14267): 0.9678 | GoB hCB1 (Log [Compound] (M) -7.14267): 2.363 | Gi1 hCB1 (Log [Compound] (M) -7.55284): 0.274 | GoB hCB1 (Log [Compound] (M) -7.55284): 5.3306 | Gi1 hCB1 (Log [Compound] (M) -8): 0.5207 | GoB hCB1 (Log [Compound] (M) -8): 3.155 | Gi1 hCB1 (Log [Compound] (M) -8.22186): 0.08902 | GoB hCB1 (Log [Compound] (M) -8.22186): -0.8557 | Gi1 hCB1 (Log [Compound] (M) -8.39794): 1.23 | GoB hCB1 (Log [Compound] (M) -8.39794): 3.334 | Gi1 hCB1 (Log [Compound] (M) -8.68787): 1.214 | GoB hCB1 (Log [Compound] (M) -8.68787): -1.521 | Gi1 hCB1 (Log [Compound] (M) -9.15521): 1.245 | GoB hCB1 (Log [Compound] (M) -9.15521): -0.6579 | Gi1 hCB1 (Log [Compound] (M) -9.61989): 2.463 | GoB hCB1 (Log [Compound] (M) -9.61989): 0.4211 | Gi1 hCB1 (Log [Compound] (M) -10.0969): 1.338 | GoB hCB1 (Log [Compound] (M) -10.0969): -1.125 | Gi1 hCB1 (Log [Compound] (M) -10.5529): 0.1353 | GoB hCB1 (Log [Compound] (M) -10.5529): -0.9456 | Gi1 hCB1 (Log [Compound] (M) -11.0177): 0.5053 | GoB hCB1 (Log [Compound] (M) -11.0177): 3.37 | Gi1 hCB1 (Log [Compound] (M) -11.4949): 0.5207 | GoB hCB1 (Log [Compound] (M) -11.4949): 5.385 | Gi1 hCB1 (Log [Compound] (M) -11.9208): 1.523 | GoB hCB1 (Log [Compound] (M) -11.9208): 2.741 | Gi1 hCB1 (Log [Compound] (M) -12.3979): 0.7674 | GoB hCB1 (Log [Compound] (M) -12.3979): 3.263 | Gi1 hCB1 (Log [Compound] (M) -12.8861): 0.2586 | GoB hCB1 (Log [Compound] (M) -12.8861): 4.072 | Gi1 hCB1 (Log [Compound] (M) -13): 1.954 and 3.465 | GoB hCB1 (Log [Compound] (M) -13): 3.838 and 3.119

COc1cccc(C(NC(=O)c2cc(C)n(-c3cccc(C(F)(F)F)c3)n2)c2ccco2)c1 (stereo not drawn) [‘1087]
Gi1 hCB1 response (Log [Compound] (M) -4.22186): 111.515 | Gi1 hCB1 response (Log [Compound] (M) -4.63927): -38.2838 | Gi1 hCB1 response (Log [Compound] (M) -5.05788): -49.9669 | Gi1 hCB1 response (Log [Compound] (M) -5.47381): 11.0449 | Gi1 hCB1 response (Log [Compound] (M) -5.89285): -12.478 | Gi1 hCB1 response (Log [Compound] (M) -6.31878): -17.0885 | Gi1 hCB1 response (Log [Compound] (M) -6.72585): -9.994 | Gi1 hCB1 response (Log [Compound] (M) -7.14267): -10.3741 | Gi1 hCB1 response (Log [Compound] (M) -7.55284): 10.754 | Gi1 hCB1 response (Log [Compound] (M) -8): -2.496 | Gi1 hCB1 response (Log [Compound] (M) -8.22186): 59.7022 | Gi1 hCB1 response (Log [Compound] (M) -8.39794): 12.6788 | Gi1 hCB1 response (Log [Compound] (M) -8.68787): -1.377 | Gi1 hCB1 response (Log [Compound] (M) -9.15521): -24.5192 | Gi1 hCB1 response (Log [Compound] (M) -9.61989): 86.3361 | Gi1 hCB1 response (Log [Compound] (M) -10.0969): -14.3804 | Gi1 hCB1 response (Log [Compound] (M) -10.5529): -6.726 | Gi1 hCB1 response (Log [Compound] (M) -11.0177): 6.211 | Gi1 hCB1 response (Log [Compound] (M) -11.4949): 9.702 | Gi1 hCB1 response (Log [Compound] (M) -11.9208): -11.0679 | Gi1 hCB1 response (Log [Compound] (M) -12.3979): -4.555 | Gi1 hCB1 response (Log [Compound] (M) -12.8861): -5.652 | Gi1 hCB1 response [1]: -4.331 and 29.5096 | Gi1 hCB1 (Log [Compound] (M) -4.22186): -6.833 | GoB hCB1 (Log [Compound] (M) -4.22186): -8.4986 | Gi1 hCB1 (Log [Compound] (M) -4.63927): -6.864 | GoB hCB1 (Log [Compound] (M) -4.63927): -10.0272 | Gi1 hCB1 (Log [Compound] (M) -5.05788): -7.357 | GoB hCB1 (Log [Compound] (M) -5.05788): -7.545 | Gi1 hCB1 (Log [Compound] (M) -5.47381): -6.895 | GoB hCB1 (Log [Compound] (M) -5.47381): -9.02 | Gi1 hCB1 (Log [Compound] (M) -5.89285): -4.166 | GoB hCB1 (Log [Compound] (M) -5.89285): -5.891 | Gi1 hCB1 (Log [Compound] (M) -6.31878): -2.0693 | GoB hCB1 (Log [Compound] (M) -6.31878): -3.409 | Gi1 hCB1 (Log [Compound] (M) -6.72585): -1.1443 | GoB hCB1 (Log [Compound] (M) -6.72585): -0.5859 | Gi1 hCB1 (Log [Compound] (M) -7.14267): 2.34 | GoB hCB1 (Log [Compound] (M) -7.14267): -0.6579 | Gi1 hCB1 (Log [Compound] (M) -7.55284): 3.064 | GoB hCB1 (Log [Compound] (M) -7.55284): 2.687 | Gi1 hCB1 (Log [Compound] (M) -8): 2.926 | GoB hCB1 (Log [Compound] (M) -8): 1.8778 | Gi1 hCB1 (Log [Compound] (M) -8.22186): 2.463 | GoB hCB1 (Log [Compound] (M) -8.22186): -2.043 | Gi1 hCB1 (Log [Compound] (M) -8.39794): -1.175 | GoB hCB1 (Log [Compound] (M) -8.39794): 1.572 | Gi1 hCB1 (Log [Compound] (M) -8.68787): 1.6 | GoB hCB1 (Log [Compound] (M) -8.68787): -4.093 | Gi1 hCB1 (Log [Compound] (M) -9.15521): 2.463 | GoB hCB1 (Log [Compound] (M) -9.15521): -0.01046 | Gi1 hCB1 (Log [Compound] (M) -9.61989): 1.8311 | GoB hCB1 (Log [Compound] (M) -9.61989): 0.3672 | Gi1 hCB1 (Log [Compound] (M) -10.0969): 1.353 | GoB hCB1 (Log [Compound] (M) -10.0969): 4.054 | Gi1 hCB1 (Log [Compound] (M) -10.5529): 3.666 | GoB hCB1 (Log [Compound] (M) -10.5529): 3.3884 | Gi1 hCB1 (Log [Compound] (M) -11.0177): 2.525 | GoB hCB1 (Log [Compound] (M) -11.0177): 3.856 | Gi1 hCB1 (Log [Compound] (M) -11.4949): 4.128 | GoB hCB1 (Log [Compound] (M) -11.4949): 2.507 | Gi1 hCB1 (Log [Compound] (M) -11.9208): 3.265 | GoB hCB1 (Log [Compound] (M) -11.9208): 1.033 | Gi1 hCB1 (Log [Compound] (M) -12.3979): 2.386 | GoB hCB1 (Log [Compound] (M) -12.3979): 3.442 | Gi1 hCB1 (Log [Compound] (M) -12.8861): 2.001 | GoB hCB1 (Log [Compound] (M) -12.8861): 2.363 | Gi1 hCB1 (Log [Compound] (M) -13): 2.402 and 0.3203 | GoB hCB1 (Log [Compound] (M) -13): 4.845 and 3.406
